Assay results taken from publication PMC10298626 (International Journal of Molecular Sciences, 2023).
Marks after values point to notes of the source that are not given here.

Assays:
in vitro = format: cell-based; details: mouse, RAW264.7 cells, then LPS (500 ng/mL) 20 h, read-out: Cell viability, Average (%); for viability at 22 h, 20 μM: 20 μM for 2 h; for viability at 22 h, 40 μM: 40 μM for 2 h; for viability at 22 h, 80 μM: 80 μM for 2 h
Procedure: To investigate the anti-inflammatory activity of coumarin derivatives, cell viability was analyzed by treating RAW264.7 cells with 23 types of coumarin derivatives at concentrations of 20, 40, and 80 μM for 2 h and with LPS for 20 h.
Mouse macrophage RAW264.7 cells were purchased from the Korea Cell Line Bank (Seoul, Republic of Korea) and cultured in Dulbecco’s Modified Eagle Medium (Corning, NY, USA) containing 10% fetal bovine serum and 1% penicillin/streptomycin at 37 °C and 5% CO2. The medium was changed every 2 days and subcultured when the cells grew > 80%.
EZ-Cytox cell viability assay kit (Dogen, Suwon, Republic of Korea) was used to measure cell viability according to the manufacturer’s instructions. RAW264.7 cells were seeded into a 96-well plate (1 × 10^5 cells/well) and treated with coumarin derivatives at concentrations of 20, 40, and 80 μM. After 2 h, the cells were treated with LPS (500 ng/mL) and cultured for 24 h in a 37 °C, 5% CO2 incubator. The culture supernatant was treated with 10% EZ-Cytox reagent, and a microplate reader was used to measure the absorbance at 450 nm.

[1] = tested on: LPS-stimulated RAW264.7 cells; assay: NO production (Griess reagent) in LPS-stimulated RAW264.7 cells; format: cell-based, Mouse; details: for NO production, Average / NO production, Average (μM): then LPS (500 ng/mL) 20 h, LPS alone 25.9, control 3.1; for Anti-inflammatory effect (inhibition of NO secretion), in words: 20, 40, and 80 μM, compared with LPS-only treatment
Procedure: A high concentration of NO promotes the synthesis of inflammatory mediators, leading to an inflammatory response, and has been reported to be a cause of various immune diseases. Therefore, this study was conducted to investigate the effect of coumarin derivatives on the production of NO induced by LPS stimulation in RAW264.7 cells. The cells were treated with coumarin derivatives at concentrations of 20, 40, and 80 μM for 2 h. Then, the cells were treated with LPS. After 20 h, the culture supernatant was recovered, and the amount of NO was measured. […] The anti-inflammatory activity of these derivatives depended on the position of the substituted group rather than the electron density of the substituted group.
The Griess reagent was used to measure NO production. RAW264.7 cells were seeded into a 96-well plate and cultured for 24 h. The cells were treated with 20, 40, and 80 μM of coumarin derivatives, cultured for 2 h, and then cultured with LPS (500 ng/mL) for 20 h. The same amount of cell supernatant and Griess reagent were used for the reaction, and absorbance was measured at 540 nm.

SMILES	viability at 22 h, 20 μM (in vitro)	viability at 22 h, 40 μM (in vitro)	viability at 22 h, 80 μM (in vitro)	NO production, Average ([1]; 20 μM for 2 h)	NO production, Average (μM) ([1]; 40 μM for 2 h)	NO production, Average (μM) ([1]; 80 μM for 2 h)	Anti-inflammatory effect (inhibition of NO secretion), in words [1]	NO production, Average ([1]; 40 μM for 2 h)	NO production, Average ([1]; 80 μM for 2 h)
Cc1cccc(C2C(C#N)=C(N)Oc3c2c(=O)oc2ccccc32)c1 (stereo not drawn) [Coumarin derivative 10]	111%	113%	104%	24.24 µM	20.34 ** μM	9.21 *** μM	inhibited NO secretion in a concentration-dependent manner	–	–
N#CC1=C(N)Oc2c(c(=O)oc3ccccc23)C1c1ccc(C#N)cc1 (stereo not drawn) [Coumarin derivative 22]	120%	122%	114%	31.41 µM	–	–	weak anti-inflammatory effects at high concentrations	28.84 µM	22.89 µM
N#CC1=C(N)Oc2c(c(=O)oc3ccccc23)C1c1ccccc1OC(F)(F)F (stereo not drawn) [Coumarin derivative 12]	99.2%	102%	106%	16.58 µM	17.28 *** μM	17.98 *** μM	showed anti-inflammatory effects	–	–
N#CC1=C(N)Oc2c(c(=O)oc3ccccc23)C1c1ccc(OC(F)(F)F)cc1 (stereo not drawn) [Coumarin derivative 14]	110%	95.8%	102%	27.72 µM	–	16.31 *** μM	weak anti-inflammatory effects at high concentrations	24.52 µM	–
Cc1ccc(C2C(C#N)=C(N)Oc3c2c(=O)oc2ccccc32)cc1 (stereo not drawn) [Coumarin derivative 11]	113%	108%	122%	24.80 µM	–	–	–	26.47 µM	26.19 µM
N#CC1=C(N)Oc2c(c(=O)oc3ccccc23)C1c1ccccc1 (stereo not drawn) [Coumarin derivative 23]	119%	118%	117%	30.77 µM	–	–	–	29.80 µM	27.39 µM
N#CC1=C(N)Oc2c(c(=O)oc3ccccc23)C1c1cccc(Br)c1 (stereo not drawn) [Coumarin derivative 19]	117%	119%	120%	27.07 µM	–	10.05 *** μM	inhibited NO secretion in a concentration-dependent manner	17.76 µM	–
N#CC1=C(N)Oc2c(c(=O)oc3ccccc23)C1c1ccc(F)cc1 (stereo not drawn) [Coumarin derivative 3]	95.4%	101%	110%	27.60 µM	–	–	–	28.86 µM	22.84 µM
N#CC1=C(N)Oc2c(c(=O)oc3ccccc23)C1c1cccc(C#N)c1 (stereo not drawn) [Coumarin derivative 21]	131%	122%	102%	28.68 µM	–	11.97 *** μM	weak anti-inflammatory effects	22.73 µM	–
N#CC1=C(N)Oc2c(c(=O)oc3ccccc23)C1c1ccccc1Cl (stereo not drawn) [Coumarin derivative 7]	106%	121%	124%	32.83 µM	–	–	–	29.66 µM	27.60 µM
